US20150344457A1, “METHODS OF INHIBITING PRMT5” (EPIZYME, INC., priority 2012, published 2015)

Experiments:
Z-138 cells [1] = test: Z-138 Methylation Assay (In Cell Western for symmetric di-methyl arginine and DNA content); assay type: cell-based; settings: Homo sapiens, Table D-2, read-out: ICW EC50
Outline: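 Symmetric di-methyl arginine signal (800 nm) ratioed to DNA content (700 nm) by In Cell Western after four days of compound treatment of Z-138 suspension cells seeded at 50,000 cells/mL. Percent inhibition set between DMSO and 3 μM reference wells; IC50 curves from triplicates.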

Z-138 cells [2] = test: Z-138 Proliferation Assay (Cell Titer Glo, 5 days); assay type: cell-based; settings: Homo sapiens, Table D-2
Outline: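 Exponentially growing Z-138 cells (10,000 cells/ml) in RPMI 1640 with 10% FBS are exposed to nine-point 3-fold dilutions (final top concentration 20 μM, 0.2% DMSO) for 5 days at 37° C. Viability is measured as ATP by CellTiter-Glo luminescence. The 50% inhibitory concentration comes from a 4-parameter fit.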

Row | SMILES | EC50 (Z-138 cells [1]) | EC50 (Z-138 cells [2])
1 | OC(CNc1cc(-c2ncc3ccn(C4CCNCC4)c3n2)ccn1)CN1CCc2ccccc2C1 (stereo not drawn) [Compound D255] | < 100 nM | 101 to 1000 nM
2 | CC(=O)N1CCC(n2ccc3cnc(-c4ccnc(NCC(O)CN5CCc6ccccc6C5)c4)nc32)CC1 (stereo not drawn) [Compound D256] | < 100 nM | 101 to 1000 nM
3 | O[C@@H](COc1cccc(-c2cccc3cccnc23)c1)CN1CCc2ccccc2C1 [Compound D257] | 101 to 1000 nM | 1000 to 10000 nM
4 | Cn1cc2ccc(-c3cccc(NCC(O)CN4CCc5ccccc5C4)c3)nc2n1 (stereo not drawn) [Compound D261] | 101 to 1000 nM | 10000 to 40000 nM
5 | CNC(=O)Cn1cnc2ccc(-c3cccc(OCC(O)CN4CCc5ccccc5C4)c3)cc21 (stereo not drawn) [Compound D262] | 1000 to 10000 nM | 1000 to 10000 nM
6 | O=C(Cn1cnc2ccc(-c3cccc(OCC(O)CN4CCc5ccccc5C4)c3)cc21)N1CCCC1 (stereo not drawn) [Compound D263] | 101 to 1000 nM | 10000 to 40000 nM

More lines, main results first:

Row | EC50 (Z-138 cells [1]) | SMILES | EC50 (Z-138 cells [2])
7 | 1000 to 10000 nM | O=C(Cn1cnc2ccc(-c3cccc(OCC(O)CN4CCc5ccccc5C4)c3)cc21)N1CCOCC1 (stereo not drawn) [Compound D264] | 1000 to 10000 nM
8 | 101 to 1000 nM | OC(CNc1cc(-c2ccc3ncn(C4COC4)c3c2)ccn1)CN1CCc2ccccc2C1 (stereo not drawn) [Compound D265] | 1000 to 10000 nM
9 | 1000 to 10000 nM | Cc1ncc2ccc(-c3cccc(OCC(O)CN4CCc5ccccc5C4)c3)cn12 (stereo not drawn) [Compound D266] | 1000 to 10000 nM
10 | 101 to 1000 nM | OC(COc1cccc(-c2ccc3ncn(C4COC4)c3c2)c1)CN1CCc2ccccc2C1 (stereo not drawn) [Compound D269] | 10000 to 40000 nM
11 | 101 to 1000 nM | CN1CCN(C(=O)Cn2cnc3ccc(-c4cccc(OCC(O)CN5CCc6ccccc6C5)c4)cc32)CC1 (stereo not drawn) [Compound D270] | 10000 to 40000 nM
12 | 101 to 1000 nM | Cn1cnc2ccc(-c3cc(NCC(O)CN4CCc5ccccc5C4)n[nH]3)cc21 (stereo not drawn) [Compound D271] | > 20000 nM
13 | 101 to 1000 nM | Cn1cnc2cc(-c3cc(NCC(O)CN4CCc5ccccc5C4)n[nH]3)ccc21 (stereo not drawn) [Compound D272] | 1000 to 10000 nM
14 | 101 to 1000 nM | CC(=O)N(CC(O)CN1CCc2ccccc2C1)c1cccc(-c2ccc3ncn(C)c3c2)c1 (stereo not drawn) [Compound D273] | 10000 to 40000 nM
15 | 101 to 1000 nM | Cn1cnc2ccc(-c3ccnc(NC[C@H](O)CN4CCc5ccccc5C4)c3)cc21 [Compound D275] | 1000 to 10000 nM
